Results published in ChEMBL document CHEMBL1147352, “Paniceins and related sesquiterpenoids from the Mediterranean sponge Reniera fulva” (1993).

Assays:
CCRF-CEM = experiment: Cytotoxicity against human CCRF-CEM cells; assay type: functional; settings: for GI50: read-out: Log10GI50 (converted); for TGI: read-out: Log10TGI (converted)
NCI-H522 = experiment: Cytotoxicity against human NCI-H522 cells; assay type: functional; settings: for GI50: read-out: Log10GI50 (converted); for CC50: read-out: Log10LC50 (converted); for TGI: read-out: Log10TGI (converted)

SMILES | GI50 (CCRF-CEM) | TGI (CCRF-CEM) | GI50 (NCI-H522) | CC50 (NCI-H522) | TGI (NCI-H522) | CC50 (CCRF-CEM; read-out: Log10LC50 (converted))
C/C(=C\Cc1cc(O)ccc1O)CCc1c(C)c(O)c(O)c(C=O)c1C [PANICEIN C] | 3.31 µM | 9.55 µM | 5.25 µM | 63.1 µM | 21.4 µM | 
C/C(=C\Cc1cc(O)ccc1O)CCc1c(C)cc(O)c(C=O)c1C [PANICEIN B3] | 4.47 µM | 30.2 µM | 10 µM | 55 µM | 23.4 µM | 
COc1cc(C)c(CC/C(C)=C/Cc2cc(O)ccc2O)c(C)c1C [PANICEIN A HYDROQUINONE] | 7.76 µM | > 25.1 µM |  |  |  | > 25.1 µM
